From patent US8563578B2, “Antitumor properties of NO modified protease inhibitors” (Onconox APS, priority 2008, dated 2013)

Columns and labels:
[1] = tested on: p-Akt in B16 cells; test: Akt phosphorylation (cELISA, Western blot), B16; type: cell-based, mouse; conditions: 18.8 μM, B16 as representative (similar in C6)
Description: A slightly modified method for cell-based ELISA (cELISA) by Versteeg (Versteed et al., 2000) was used to measure the expression of galactocerebroside, glial fibrilar acidic protein (GFAP), myelin basic protein (MBP), cyclin D3, p53 and p-AKT. Briefly, at the end of cultivation period cells were fixed in 4% paraformaldehyde, endogenous peroxydase was quenched with 1% H2O2 in PBS containing 0.1% Triton X-100 (PBST), and unspecific binding of antibodies blocked with PBST solution containing 10% FCS. […] The absorbance at 450 nm was measured in an automated microplate reader 15 min after incubation with peroxydase substrate TMB and subsequently to addition of 0.1 M HCl. To facilitate comparison between treatments, the obtained absorbances were corrected for the cell number that was determined by crystal violet staining, as described in the original protocol. […]
FIG. 6. […] (C) B16 cells (1×10^4 cells/well) were incubated for 24 h with 18.8 μM Saq-NO2 with or without Akt VI (50μg/ml) or 3-MA (1 mM) and cell viability was assessed by MTT. […]

[2] = tested on: B16 cells; test: Melanin determination, B16; type: cell-based, mouse; conditions: 18.8 μM, 24 h
Procedure: Tyrosinase activity was determined by measuring the rate of oxidation of L-DOPA^34. Briefly, sub-confluent cultures in 6-well plate were lysed in 100 μl phosphate buffer pH 6.8-1% Triton X-100 and than centrifuged at 10000 rpm for 5 min. 40 μl of each extract was mixed with 100 μl of L-DOPA substrate solution (2 mg/ml). Enzymatic reaction was carried out at 37° C. and the absorbance at 570 nm was read every 10 min for at least 1 h. The final activity was corrected by the total amount of protein estimated by Bradford assay. For melanin determination cells were incubated in 6 well plate for 24 h, trypsinized, counted and than lysed in 100 μl of 1M NaOH. 400 μl of distilled water was added and samples were incubated at 60° C. for 1 h. Thereafter, absorbance of dissolved dye was measured at 492 nm.
FIG. 5. […] Cell morphology was assessed by light microscopy (A). Markers of cell differentiation of C6 and B16 cells, galactocerebroside, GFAP and MBP were determined by cELISA and melanin and tyrosinase activity were determined as described in material and methods (B). Cyclin D3 and p53 expression were evaluated by cELISA (C, upper panels), immunocytochemistry (C, middle panel) and Western blot (C, lower panel). The results were presented as mean±SD from three independent experiments. *p<0.05, refers to untreated cultures.

[3] = tested on: Tumor cells; test: Viability recovery after drug withdrawal (CV test); type: cell-based; conditions: 18.8 μM for 24 h, drug removed, additional 24 h
Procedure: Reduction of 3-4,5-dimethylthiazol-2-yl)-2,5-diphenyltetrazolium bromide (MTT) to formazan depends on mitochondrial activity of cultured cells, absorption of crystal violet dye correlates with the number of adherent, live cells, while the release of cytosolic lactate dehydrogenase (LDH) indicates the disruption of membrane integrity caracteristic for necrotic cells. The cells were seeded in flat-bottom 96-well plates in a final volume of 200 μl of culture medium containing different agents, and the assays were performed after 24 h incubation exactly as previously described (Mijatovic et al. 2004, Decker et al., 1998). Mitohondrial-dependent production of formazan and intensity of absorbed crystal violet by adherent cells were assessed by an automated microplate reader at 570 nm, while the pyruvate-mediated conversion of 2,4-dinitrophenylhydrazine into visible hydrazone precipitate in LDH assay was measured at 492 nm. The % of cytotoxicity as indicated by LDH release was calculated as: (E−C)/(T−C)×100, where E is the experimental absorbance of cell cultures, C is the control absorbance of cell-free culture medium, and T is the absorbance corresponding to the maximal (100%) LDH release of Triton-lysed cells.
FIG. 4. […] Results are calculated as indicated in materials and methods and presented as mean±SD from representative of three independent experiment (*p <0.05). […]

SMILES: CC(C)(C)NC(=O)[C@@H]1C[C@@H]2CCCC[C@@H]2CN1C[C@@H](O)[C@H](Cc1ccccc1)NC(=O)[C@H](CC(N)=O)NC(=O)c1ccc2ccccc2n1 [Saq, Saquinavir, reference compound]
- p-Akt expression / phosphorylation of AKT [1]: abrogated p-Akt expression
- melanin content [2]: increased
- recovery of viability after drug withdrawal [3]: mainly restored the viability

SMILES: CC(C)(C)NC(=O)[C@@H]1C[C@@H]2CCCC[C@@H]2CN1C[C@@H](O[N+](=O)[O-])[C@H](Cc1ccccc1)NC(=O)[C@H](CC(N)=O)NC(=O)c1ccc2ccccc2n1 [Saq-NO2, nitric ester of Saquinavir]
- p-Akt expression / phosphorylation of AKT [1]: induced considerable transient phosphorylation of AKT
- melanin content [2]: unchanged
- recovery of viability after drug withdrawal [3]: very mild recovering
